From EP0151577B1 (priority 1983, dated 1984)

Tests used:
[1] = Solubility in water and organic solvents; assay type: physicochemical
From the text: II est insoluble dans le benzene, l'acetate d'ethyle et le chloroforme.

souris [2] = assay: General pharmacological profile: spontaneous motor activity; assay type: in vivo; details: souris
From the text: (§1) Activite motrice spontanée: MODIGH, K., Central and peripheral effects of 5-hydroxytryptophan on motor activity in mice. Psychopharmacologia (Berlin), 23, 48, 1972. Cadence respiratoire: […], S., and VALZELLI, L. Serotonin and cardiovascular system, Chapter 9, in "Serotonin", Elsevier Publ. Co. Amsterdam 1965.

souris [3] = assay: General pharmacological profile: respiratory rate; assay type: in vivo; details: souris
From the text: as §1
COHEN, Y. and BLANCHARD, P. Influence de la chelation du calcium sur les effets tensionnels de la sérotonine chez le chien. J. Physiol., 52, 569,1960.
BRAUNWALD, E. Control of myocardial oxygen consumption: Physiologic and clinical considerations. Am. J. Cardiol., 27 (4), 416,1971.

souris [4] = assay: Pentobarbital sleeping time; assay type: in vivo
Experimental: Les mesures ont été faites a 15, 30 et 60 minutes après I'administration par voie intrapéritonéale (i.p.) a des souris.

souris [5] = assay: Anti-stress activity: swimming endurance; assay type: in vivo; details: 174 mg/kg i.p., souris observed up to 540 min; témoins 385 ± 31 min
Experimental: Au tableau 4, la lettre N designe le nombre d'animaux (souris). Un astérisque indique une activite importante. Deux astérisques indiquent une possibilité d'activité positive. Dans I'essai d'endurance a la nage, on a observe les souris jusqu'à 540 minutes, la durée moyenne de nage pour les souris témoins étant de 385 ± 31 minutes.
(N) - représente le nombre d'animaux * - activité importante ** - activite positive possible Pour I'endurance a la nage, les souris ont été observées jusqu'à 540 min, la durée moyenne de nage chez les souris témoins était de 385 + 31 min. *** - La leucocytose a été induite par 0,1 ml de lait (sous-cutanée) avant traitement avec le medicament.

rat = assay: Anti-stress activity: restraint ulcer in the rat; assay type: in vivo; details: 174 mg/kg i.p.
From the text: BONFILS, S., LIEFOOGHE, GK, ROSSI, G. and LAMBLING, A. L'ulcère de contrainte du Rat blanc. Modifications de la fréquence lesionnelle par différents precedes opératoires et pharmacodynamiques. C.R. Soc. Biol., 151, 1149, 1957.
BONFILS, S., ROSSI, G., LIEFOOGHE, G. and LAMBLING, A., Ulcère experimental de contrainte, I. Méthodes, fréquence des lesions, modifications par certains precedes techniques et pharmacologiques. Rev. franç. Etudes clin. biol., 4,146, 1959.

souris [6] = assay: Anti-stress activity: milk-induced leucocytosis; assay type: in vivo; details: 174 mg/kg i.p.; 0,1 ml de lait s.c. before treatment; lait seulement 23866 ± 214
[7] = system: réponse à l'obstruction de la carotide; assay: Cardiovascular activity: response to carotid occlusion (CO); assay type: in vivo
From the text: Le protocole experimental était celui décrit dans "Sugar Derivatives of Indolamines. part V: Cardiovascular Effects and "Anti-stress" Activity of Desoxyfructose Derivative of Serotonin and 5-Metho-xy- tryptamin", L. Mester, M. Mester, K.P. Bhargava, C. Labrid, G. Dureng and M. Cheucle, THROMBOSIS […], 15,245,1979.

M. Leprae = assay: Incorporation of 3H-DOPA by M. leprae in vitro; assay type: cell-based, Mycobacterium leprae; details: 6 h
From the text: Le tableau 6 rassemble des résultats d'essai concernant l'activité du DF-5HTP sur l'incorporation de la DOPA dans les Mycobacteries de la lèpre. Le protocole experimental était celui décrit dans JAYARAMAN, P., […], P.R., MESTER, M. and MESTER, L. Inhibition of the incorporation of ^3H-DOPA in Mycobacterium leprae by Desoxyfructo-serotonin. Biochem. Pharm., 29, 2526,1980.
On a inoculé 5 x 10^6 M. leprae par tube; le milieu était un tampon phosphate à pH 6,8. La quantité de 3H-DOPA était de 1 µ. Ci/tube.
Protocole: Chaque tube de 0,5 ml est inocule de 5 x 10^6 M. leprae et de 1 µ Ci de ^3H-DOPA. Après 6 heures, I'incorporation de la DOPA radioactive est enregistrée en DPM selon la technique utilisée dans JAYARAMAN, P., […], P.R., MESTER, M. and MESTER, L. Inhibition of the Incorporation of ^3H-DOPA in Mycobacterium leprae by Desoxyfructo-serotonin. Biochem. Pharm., 29,2526,1980.

[8] = In vivo metabolism of radioactive compounds, hamster plasma; details: après 24 heures, figure 2
From the text: La mesure de la radioactivite des diverses fractions isolées du sang des hamsters traités permet de caractériser les metabolites, lesquels sont ainsi isolés et identifies par électrophorèse. Les metabolites acides HIAA et IAA sont séparés ensemble.
On a porté le temps en abscisses (exprimé en heures) et en ordonnées le pourcentage du compose caractérisé dans le plasma.

[9] = system: 5-HT (dans tout le cerveau); assay: Amount of serotonin (5-HT) in whole brain, spectrophotofluorometric; assay type: in vivo, souris
From the text: Les quantités de sérotonine ont été estimees par une méthode spectrophotofluorométrique, telle que décrite par Solomon et al. Biochem. Pharmacology 14, 831 (1965). Les résultats de ces essais sont rassemblés dans le Tableau 10 ci-après.
• * Chaque valeur représente la moyenne de quatre animaux d'experience (souris) • ** La concentration de 5-HT est exprimée par gramme de tissu frais (cerveau).

[10] = 10 mg par voie cérébroventriculaire

O=C(O)C(Cc1c[nH]c2ccc(O)cc12)NCC1(O)OCC(O)C(O)C1O (centres unmarked) [DF-5HTP, N-1-desoxyfructo-5-hydroxytryptophane]
solubilité dans le benzene, l'acetate d'ethyle et le chloroforme ([1]; benzene, acetate d'ethyle, chloroforme): insoluble
soluble dans I'eau ([1]; eau): facilement soluble
Activité motrice spontanée (souris [2]; 100 mg/kg (ip), Tableau 2): légère augmentation
Activité motrice spontanée (souris [2]; 174 mg/kg (ip)): augmentation
Cadence respira-toire (souris [3]; 100 mg/kg (ip), Tableau 2): sans effet
Cadence respira-toire (souris [3]; 174 mg/kg (ip)): sans effet
Temps de sommeil au pentobarbital % du témoin (témoin =100) (souris [4]; 100 mg/kg (ip), 15 min, Tableau 2): 140 % du témoin
Temps de sommeil au pentobarbital % du témoin (témoin =100) (souris [4]; 100 mg/kg (ip), 30 min): 114 % du témoin
Temps de sommeil au pentobarbital % du témoin (témoin =100) (souris [4]; 100 mg/kg (ip), 60 min): 103 % du témoin
Temps de sommeil au pentobarbital % du témoin (témoin =100) (souris [4]; 174 mg/kg (ip), 15 min): 93 % du témoin
Temps de sommeil au pentobarbital % du témoin (témoin =100) (souris [4]; 174 mg/kg (ip), 30 min): 95 % du témoin
Temps de sommeil au pentobarbital % du témoin (témoin =100) (souris [4]; 174 mg/kg (ip), 60 min): 91 % du témoin
Endurance à la nage % d'augmentation (souris [5]): 40^** %
Effet anti-ulcère chez le rat (18 heures sous contrainte) Indice d'Ul-cération (rat; témoin 34): 10^**(4)
Effet anti-ulcère chez le rat (18 heures sous contrainte) % Ul-cération (rat; témoin 90): 50%
Effet sur la leu-cocytose induite par le lait Moyenne T.L.C./Cmm (souris [6]): 10468 ± 130 (8) /Cmm
REPONSE CO Durée [7, 10]: 120 min
REPONSE CO Mesure à [7, 10]: 30 min
REPONSE CO Pic [7, 10]: 30 min
REPONSE CO Durée ([7]; 100 mg par voie intraveineuse): 45 min
REPONSE CO Mesure à ([7]; 100 mg par voie intraveineuse): 1 min
REPONSE CO Pic ([7]; 100 mg par voie intraveineuse): 1 min
incorporation de 3H-DOPA par M. Leprae (M. Leprae; 1 µg/ml, Armadillo M.Leprae N°2275/5, témoins 5977): 2922 DPM
incorporation de 3H-DOPA par M. Leprae (M. Leprae; 1 µg/ml, Armadillo M.Leprae N°2275/5 Tués par la chaleur, témoins 915): 1008 DPM
incorporation de 3H-DOPA par M. Leprae (M. Leprae; 1 µg/ml, Armadillo M.Leprae N°2457/103, témoins 4215): 2555 DPM
incorporation de 3H-DOPA par M. Leprae (M. Leprae; 1 µg/ml, Armadillo M.Leprae N°2457/103 Tués par la chaleur, témoins 2855): 2660 DPM
incorporation de 3H-DOPA par M. Leprae (M. Leprae; 5 µg/ml, Armadillo M.Leprae N°2275/5, témoins 5977): 1599 DPM
incorporation de 3H-DOPA par M. Leprae (M. Leprae; 5 µg/ml, Armadillo M.Leprae N°2275/5 Tués par la chaleur, témoins 915): 732 DPM
incorporation de 3H-DOPA par M. Leprae (M. Leprae; 5 µg/ml, Armadillo M.Leprae N°2457/103, témoins 4215): 1930 DPM
incorporation de 3H-DOPA par M. Leprae (M. Leprae; 5 µg/ml, Armadillo M.Leprae N°2457/103 Tués par la chaleur, témoins 2855): 2675 DPM
taux du compose non transformé dans le plasma [8]: considerable
Quantités de 5-HT (dans tout le cerveau) ([9]; 100 mg/kg i.p., 15 min., Solution Saline 60,0, mean of 4 souris): 87,5
Quantités de 5-HT (dans tout le cerveau) ([9]; 174 mg/kg i.p., 15 min., Solution Saline 60,0, mean of 4 souris): 75,0
Quantités de 5-HT (dans tout le cerveau) ([9]; 174 mg/kg i.p., 30 min., par gramme de tissu frais, Solution Saline 107): 200,4
Quantités de 5-HT (dans tout le cerveau) ([9]; 174 mg/kg i.p., 60 min., par gramme de tissu frais, Solution Saline 100): 160,8
